# Measurements as given in PubChem BioAssay AID504341 (Southern Research Specialized Biocontainment Screening …, 2011).
# Active and inactive are the calls of the source.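 Rule for the calls: active = compounds blocking at least half of HIV-1 envelope-driven cell fusion at some tested dose; inactive = the rest.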
# Test system: MAGI-CCR5/HeLa-R5-16 cell fusion, beta-gal luminescence
# Assay: CCR5-tropic HIV-1 entry blockers, cell-cell fusion – MAGI-CCR5/HeLa-R5-16 cells, beta-gal luminescence, 2% serum, dose response (AID 504341)
row,SMILES,IC50
1,CCOC(=O)C1=C(C)N=c2sc(=Cc3ccc(OCC(=O)O)cc3)c(=O)n2C1c1ccccc1OC (stereo not drawn),48.8 µM
2,O=C(O)c1ccc([C@@H]2Nc3ccc(S(=O)(=O)Nc4cccc5ccccc45)cc3[C@@H]3C=CC[C@@H]32)cc1,23.5 µM
3,CS(=O)(=O)C1=NSC2=NC(=O)/C(=C\c3cccn3-c3cc(Cl)cc(Cl)c3)C(=N)N21,32.3 µM
4,O=C(O)c1ccc(C2Nc3ccc(S(=O)(=O)Nc4cc(Cl)ccc4Cl)cc3C3C=CCC32)cc1 (stereo not drawn),28.4 µM
5,Cc1ccc(-c2ccc(/C=C3\SC(=S)N(CCCC(=O)O)C3=O)o2)cc1,29.1 µM
6,CS(=O)(=O)C1=NSC2=NC(=O)/C(=C\c3cccn3-c3cccc(C(F)(F)F)c3)C(=N)N21,46.6 µM
7,CS(=O)(=O)C1=NSC2=NC(=O)/C(=C\c3cccn3-c3cccc(Cl)c3)C(=N)N21,36.4 µM
8,CCc1ccc(-n2cccc2/C=C2/C(=N)N3C(=NC2=O)SN=C3S(C)(=O)=O)cc1,33.3 µM
9,O=C(O)CCCN1C(=O)/C(=C/c2ccc(-c3ccc(Cl)c(Cl)c3)o2)SC1=S,8.68 µM
10,CCOC(=O)C1=C(C)N=c2sc(=Cc3ccc(OCC(=O)O)cc3)c(=O)n2C1c1cc(OC)c(OC)c(OC)c1 (stereo not drawn),75.5 µM
11,Cc1ccc(-n2cccc2/C=C2/C(=N)N3C(=NC2=O)SN=C3S(C)(=O)=O)cc1C,33.1 µM
12,COc1ccccc1NS(=O)(=O)c1ccc2c(c1)C1C=CCC1C(c1ccc(C(=O)O)cc1)N2 (stereo not drawn),38.7 µM
13,CS(=O)(=O)C1=NSC2=NC(=O)/C(=C\c3cccn3-c3ccc(Br)cc3)C(=N)N21,28.5 µM
14,CS(=O)(=O)C1=NSC2=NC(=O)/C(=C\c3cccn3-c3cccc(F)c3)C(=N)N21,49.9 µM
15,COc1ccccc1Cn1c(O)cc2nn(-c3nc4ccccc4s3)c(=O)c-2c1C,17 µM
16,Cc1c2c(=O)n(-c3nc4ccccc4s3)nc-2cc(O)n1CCc1ccc(O)cc1,5.19 µM
17,Cc1c2c(=O)n(-c3nc4ccccc4s3)nc-2cc(O)n1CCC(C)C,39 µM
18,Cc1c2c(=O)n(-c3nc4ccccc4s3)nc-2cc(O)n1Cc1ccncc1,2.96 µM
19,CCOc1ccc(-n2cccc2/C=C2/C(=N)N3C(=NC2=O)SN=C3S(C)(=O)=O)cc1,39.5 µM
20,O=C(O)CCCN1C(=O)/C(=C/c2cc3ccccc3o2)SC1=S,> 100 µM (inactive)
21,Cc1c2c(=O)n(-c3nc4ccccc4s3)nc-2cc(O)n1Cc1cccs1,34.5 µM
22,COc1cccc(-n2cccc2/C=C2/C(=N)N3C(=NC2=O)SN=C3S(C)(=O)=O)c1,> 100 µM (inactive)
23,O=C(O)CCC(C(=O)O)N1C(=O)/C(=C\c2ccco2)SC1=S (stereo not drawn),> 100 µM (inactive)
24,Cc1ccc(-n2cccc2/C=C2/C(=N)N3C(=NC2=O)SN=C3S(C)(=O)=O)cc1,38 µM
25,Nc1sc2ccccc2[n+]1Cc1ccc(C(=O)O)cc1,> 100 µM (inactive)
26,O=C(O)CCCN1C(=O)/C(=C\c2ccc(-c3ccc(Br)cc3)o2)SC1=S,3.49 µM
27,CCc1ccc(-c2ccc(/C=C3\SC(=S)N(CCCC(=O)O)C3=O)o2)cc1,62.4 µM

row,SMILES,IC50
1,Cc1c2c(=O)n(-c3nc4ccccc4s3)nc-2cc(O)n1CCc1cccs1,> 100 µM (inactive)
2,COc1ccc(CCn2c(O)cc3nn(-c4nc5ccccc5s4)c(=O)c-3c2C)cc1,> 100 µM (inactive)
3,CCOC(=O)C1=C(c2ccccc2)N=c2s/c(=C\c3ccc(OCC(=O)O)cc3)c(=O)n2C1c1cccc(OC)c1 (stereo not drawn),25.8 µM
4,COc1ccc(-n2cccc2/C=C2/C(=N)N3C(=NC2=O)SN=C3S(C)(=O)=O)cc1Cl,46.4 µM
5,O=C(O)CCCN1C(=O)/C(=C\c2ccc(-c3ccc(Cl)cc3)o2)SC1=S,8.29 µM
6,O=C(O)CCCN1C(=O)/C(=C\c2ccc(-c3ccc(F)cc3)o2)SC1=S,> 100 µM (inactive)
7,O=C(O)c1ccc(C[n+]2c(-c3ccccc3)csc2Nc2ccccc2)cc1,> 100 µM (inactive)
8,CS(=O)(=O)C1=NSC2=NC(=O)/C(=C\c3cccn3-c3ccc(Cl)c(Cl)c3)C(=N)N21,35.2 µM
9,COc1ccc(-c2ccc(/C=C3\SC(=S)N(CCCC(=O)O)C3=O)o2)cc1,36.6 µM
10,COc1cccc(C2C(C(=O)Nc3ccccc3)=C(C)N=c3sc(=Cc4ccc(OCC(=O)O)cc4)c(=O)n32)c1 (stereo not drawn),> 100 µM (inactive)
11,CS(=O)(=O)C1=NSC2=NC(=O)/C(=C\c3cccn3-c3ccc(Cl)cc3)C(=N)N21,34.8 µM
12,Cc1c2c(=O)n(-c3nc4ccccc4s3)nc-2cc(O)n1Cc1ccccc1Cl,45.6 µM
13,O=C(O)c1ccc(C[n+]2c(-c3ccc([N+](=O)[O-])cc3)csc2Nc2ccccc2)cc1,> 100 µM (inactive)
14,Cc1c2c(=O)n(-c3nc4ccccc4s3)nc-2cc(O)n1Cc1cccnc1,3.54 µM
15,CCOC(=O)C1=C(C)N=c2s/c(=C\c3ccc(OCC(=O)O)cc3)c(=O)n2C1c1ccc(OC)c(OCC)c1 (stereo not drawn),31.3 µM
16,CCOC(=O)C1=C(C)N=c2sc(=Cc3ccc(OCC(=O)O)cc3)c(=O)n2C1c1ccccc1 (stereo not drawn),63.1 µM
17,CC1=C(C(=O)OC(C)C)C(c2ccc(Cl)cc2)n2c(s/c(=C\c3ccc(OCC(=O)O)cc3)c2=O)=N1 (stereo not drawn),56.8 µM
18,CCOC(=O)C1=C(C)N=c2sc(=Cc3ccc(OCC(=O)O)cc3)c(=O)n2C1c1ccc(OC)cc1OC (stereo not drawn),29 µM
19,CCOC(=O)C1=C(C)N=c2sc(=Cc3ccc(OCC(=O)O)cc3)c(=O)n2C1c1ccc(F)cc1 (stereo not drawn),39.2 µM
20,CCOC(=O)C1=C(C)N=c2s/c(=C\c3ccc(OCC(=O)O)cc3)c(=O)n2C1c1ccc(Cl)cc1 (stereo not drawn),34.9 µM
21,CS(=O)(=O)C1=NSC2=NC(=O)/C(=C\c3cccn3-c3ccc(F)cc3)C(=N)N21,27.9 µM
22,Cc1c2c(=O)n(-c3nc4ccccc4s3)nc-2cc(O)n1Cc1ccc(F)cc1,20 µM
23,COc1ccc(Cn2c(O)cc3nn(-c4nc5ccccc5s4)c(=O)c-3c2C)cc1,15.3 µM
24,Cc1c2c(=O)n(-c3nc4ccccc4s3)nc-2cc(O)n1C1CC1,15.5 µM
25,O=C(O)CCCN1C(=O)/C(=C\c2ccc(-c3cccc(Cl)c3)o2)SC1=S,28.5 µM
26,O=C(O)CCCN1C(=O)/C(=C/c2ccc(-c3cccc(C(F)(F)F)c3)o2)SC1=S,24.5 µM
